What is called IC50 is the midpoint of a concentration-inhibition curve.

We go through one compound from paper PMC3058180 (Journal of pharmaceutical sciences, 2010).

SMILES strings stand for the structures.

This test has as its system A/Wuhan/359/95 E119V (oseltamivir-resistant). The format is cell-based, influenza A virus. The settings on record: read-out: IC50 (nM of Zanamivir).

Take `CC(=O)N[C@H]1[C@H]([C@H](O)[C@H](O)CO)OC(C(=O)O)=C[C@@H]1N=C(N)N` [compound 1, Zanamivir]: the IC50 was 48000 nM.
